Test results as given in patent publication US11613526B2, “Thiophene derivatives” (priority 2018, dated 2023).

How the values were obtained:
[1] = molecular target: T1, interaction of the PAS B domains of HIF-2α and HIF-1β (Homo sapiens, UniProt Q99814); experiment: Alphascreen protein protein interaction assay; assay type: biochemical
T1 construct: His6Gb1-TEV-GEFKGL-HIF2α (240-350aa)-G
Procedure: Alphascreen Protein Protein Interaction Assay:
For the assessment of functional disruption of the interaction of the PAS B domains of HIF-2α and HIF-1β an AlphaScreen assay was set-up. The assay was performed in 384 well light gray Perkin Elmer microtiter plates in a total volume of 7 μl. […] The detection of the protein protein interaction was performed by adding AlphaLISA® Anti-FLAG Acceptor beads (fc 20 μg/ml) and AlphaScreen® Nickel Chelate Donor beads (fc 9 μg/ml) (both Perkin Elmer) and the reaction was incubated for 240 min at 23° C. in the dark. If donor and acceptor beads get in close proximity to each other caused by interaction of HIF2alpha PAS B with HIF-1ß PAS B domain it results in a luminescence signal at 615 nm after excitation at 680 nm. The PPI disruption activity of a compound was calculated directly from the loss in Alphascreen signal. The AlphaScreen signal was measured with an Envision multimode reader (Perkin Elmer LAS Germany GmbH). The control value used was the inhibitor-free reaction. The pharmacological zero value used was determined in the absence of HIF-11. The inhibitory values (IC50) were calculated using Assay analyser from GeneData.

[2] = system: HIF2α-HIF1β activity in 786-O HRE-luc2P cells; experiment: Cellular mechanistic assay: 786-O HRE-luc2P reporter assay; assay type: cell-based; conditions: Homo sapiens, 786-0, 48 h, read-out: HRE-luc2P reporter assay IC50
Procedure: This reporter assay was designed to monitor binding of the HIF2α-HIF1β complex to specific DNA fragment called hypoxia response element (HRE) in physiologically relevant cell line. […] HRE is present in promoters of various genes regulated by hypoxia inducible factors. […] As a result, this reporter assay allows monitoring of HIF2α-HIF1β activity by determining the activity of produced luciferase. Cell culture is performed in RPMI media supplemented with 10% FBS, Sodium Pyruvate, Penicillin/Streptomycin, Glutamine, 200 μg/ml Hygromycin Gold.
The assay was performed in 384 well white, opaque microtiterplate with transparent bottom (Greiner Bio-one, Frickenhausen). […] 50 μl of cell suspension (2000 cells) per well were dispensed in microtiter plates and incubated over night at 37° C. in a 5% CO2 incubator. Compounds were added with Labcyte Echo dispenser (fc 0.2% DMSO, 9 concentrations dilution raw starting at 10 μM). Plates were incubated for 48 h at 37° C. in a 5% CO2 incubator. After this 45 μl of pre-warmed ONE-Glo™ EX Reagent were added per well. Plates were placed on an orbital shaker at 1200 rpm for 3 minutes. Plates were sealed and luminescence was measured a Tecan Spark 20M microplate reader (end-point measurement with 0.1 second reading time). Values were normalized to DMSO ctrl and wells without cells (only medium ctrl). Decrease in luminescence directly correlates with inhibition of HIF2α activity. IC50 values and % effect values were calculated by GraphPad Prism.

HIF2a (240-350)-G = molecular target: T2, HIF2a (240-350)-G (Homo sapiens, UniProt Q99814); experiment: ITC; assay type: binding
T2 construct: The protein, HIF2a (240-350)-G, was prepared by recombinant overexpression; made in house
T2 sequence (Q99814 240-350): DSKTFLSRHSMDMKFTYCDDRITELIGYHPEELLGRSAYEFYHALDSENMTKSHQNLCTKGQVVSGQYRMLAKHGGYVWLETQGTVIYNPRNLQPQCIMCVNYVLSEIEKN
Procedure: ITC measurements were performed with a VP-ITC microcalorimeter from MicroCal/Malvern (UK). For all titration experiments the protein and the respective compounds were formulated in 30 mM HEPES buffer pH 7.5, 150 mM NaCl and 5 mM ß-mercaptoethanol. The protein, HIF2a (240-350)-G, was prepared by recombinant overexpression and multistep chromatography purification. Compounds were used from concentrated DMSO stock solutions. The final protein concentration in the injection syringe was 100 μM. Ligand stock solutions of 10 mM in DMSO were diluted to 10 μM concentrations with buffer and loaded into the sample cell. All buffers were adjusted to a final concentration of 1% (v/v) DMSO. Both, the titrate and titrant solutions were degassed prior to loading the calorimeter cell and injection syringe. […] The integrated heat data were fit with a one-site binding model to determine the apparent values for affinity, enthalpy and stoichiometry of binding.

T1 sequence (Q99814 240-350): as above

Row | Compound | IC50 [1] [nM] | IC50 [2] [nM] | Kd (HIF2a (240-350)-G) [nM]
1 | Cn1nc(C(F)(F)F)cc1-c1sc(S(C)(=O)=O)c2c1CCC(F)(F)[C@H]2O [Example 46a, (4S)-5,5-difluoro-3-methanesulfonyl-1-[1-methyl-3-(trifluoromethyl)-1H-pyrazol-5-yl]-4,5,6,7-tetrahydro-2-benzothiophen-4-ol] | > 1000 | > 1000 | –
2 | Cn1cc(-c2sc(S(C)(=O)=O)c3c2CCC(F)(F)[C@H]3O)cn1 [Example 40a, (4S)-5,5-difluoro-3-methanesulfonyl-1-(1-methyl-1H-pyrazol-4-yl)-4,5,6,7-tetrahydro-2-benzothiophen-4-ol] | > 1000 | – | –
3 | CS(=O)(=O)c1sc(-c2cccc(F)c2)c2c1[C@H](O)C(F)(F)CC2 [Example 37a, (4S)-5,5-difluoro-1-(3-fluorophenyl)-3-methanesulfonyl-6,7-dihydro-4H-2-benzothiophen-4-ol] | > 1000 | > 1000 | > 1000
4 | Cn1cc(-c2sc(S(C)(=O)=O)c3c2CC(F)(F)[C@H]3O)cn1 [Example 35a, (4S)-5,5-difluoro-3-methanesulfonyl-1-(1-methyl-1H-pyrazol-4-yl)-4H,5H,6H-cyclopenta[c]thiophen-4-ol] | > 1000 | – | –
5 | CS(=O)(=O)c1sc(-c2cncc(C#N)c2)c2c1[C@H](O)C(F)(F)CC2 [Example 59a, 5-[(4S)-5,5-difluoro-4-hydroxy-3-methanesulfonyl-4,5,6,7-tetrahydro-2-benzothiophen-1-yl]pyridine-3-carbonitrile] | > 1000 | – | –
6 | COc1ncc(-c2sc(S(C)(=O)=O)c3c2CCC(F)(F)[C@H]3O)cc1Cl [Example 65a, (4S)-1-(5-chloro-6-methoxypyridin-3-yl)-5,5-difluoro-3-methanesulfonyl-4,5,6,7-tetrahydro-2-benzothiophen-4-ol] | > 1000 | – | –
7 | Cn1nccc1-c1sc(S(C)(=O)=O)c2c1CC(F)(F)[C@H]2O [Example 47a, (4S)-5,5-difluoro-3-methanesulfonyl-1-(1-methyl-1H-pyrazol-5-yl)-4H,5H,6H-cyclopenta[c]thiophen-4-ol] | > 1000 | > 1000 | –
8 | Cc1cncc(-c2sc(S(C)(=O)=O)c3c2CCC(F)(F)[C@H]3O)c1 [Example 57a, (4S)-5,5-difluoro-3-methanesulfonyl-1-(5-methylpyridin-3-yl)-4,5,6,7-tetrahydro-2-benzothiophen-4-ol] | > 1000 | – | –
9 | CS(=O)(=O)c1sc(-c2cncc(Cl)c2)c2c1[C@H](O)C(F)(F)CC2 [Example 56a, (4S)-1-(5-chloropyridin-3-yl)-5,5-difluoro-3-methanesulfonyl-4,5,6,7-tetrahydro-2-benzothiophen-4-ol] | 50 to 1000 | > 1000 | –
10 | Cn1nc(C(F)(F)F)cc1-c1sc(S(C)(=O)=O)c2c1CC(F)(F)[C@H]2O [Example 48a, (4S)-5,5-difluoro-3-methanesulfonyl-1-[1-methyl-3-(trifluoromethyl)-1H-pyrazol-5-yl]-4H,5H,6H-cyclopenta[c]thiophen-4-ol] | > 1000 | > 1000 | –
11 | Cc1nn(C)cc1-c1sc(S(C)(=O)=O)c2c1CCC(F)(F)[C@H]2O [Example 39a, (4S)-1-(1,3-dimethyl-1H-pyrazol-4-yI)-5,5-difluoro-3-methanesulfonyl-4,5,6,7-tetrahydro-2-benzothiophen-4-ol] | > 1000 | – | –
12 | CS(=O)(=O)c1sc(-c2cncc(C(F)(F)F)c2)c2c1[C@H](O)C(F)(F)CC2 [Example 62a, (4S)-5,5-difluoro-3-methanesulfonyl-1-[5-(trifluoromethyl)pyridin-3-yl]-4,5,6,7-tetrahydro-2-benzothiophen-4-ol] | 50 to 1000 | > 1000 | –

Results, then the compound that gave them:

Row | IC50 [1] [nM] | IC50 [2] [nM] | Kd (HIF2a (240-350)-G) [nM] | Compound
13 | > 1000 | – | > 1000 | CS(=O)(=O)c1sc(-c2cccc(F)c2)c2c1[C@H](O)C(F)(F)C2 [Example 28a, (4S)-5,5-difluoro-1-(3-fluorophenyl)-3-methanesulfonyl-4H,6H-cyclopenta[c]thiophen-4-ol]
14 | > 1000 | – | – | Cn1nc(C#N)cc1-c1sc(S(C)(=O)=O)c2c1CCC(F)(F)[C@H]2O [Example 51a, 5-[(4S)-5,5-difluoro-4-hydroxy-3-methanesulfonyl-4,5,6,7-tetrahydro-2-benzothiophen-1-yl]-1-methyl-1H-pyrazole-3-carbonitrile]
15 | > 1000 | – | – | Cc1cc(-c2sc(S(C)(=O)=O)c3c2CCC(F)(F)[C@H]3O)n(C)n1 [Example 50a, (4S)-1-(1,3-dimethyl-1H-pyrazol-5-yl)-5,5-difluoro-3-methanesulfonyl-4,5,6,7-tetrahydro-2-benzothiophen-4-ol]
16 | > 1000 | – | – | CS(=O)(=O)c1sc(-c2cncc(F)c2)c2c1[C@H](O)C(F)(F)CC2 [Example 58a, (4S)-5,5-difluoro-1-(5-fluoropyridin-3-yl)-3-methanesulfonyl-4,5,6,7-tetrahydro-2-benzothiophen-4-ol]
17 | < 50 | > 1000 | 50 to 1000 | CS(=O)(=O)c1sc(-c2cc(F)nc(Cl)c2)c2c1[C@H](O)C(F)(F)CC2 [Example 63a, (4S)-1-(2-chloro-6-fluoropyridin-4-yl)-5,5-difluoro-3-methanesulfonyl-4,5,6,7-tetrahydro-2-benzothiophen-4-ol]
18 | > 1000 | – | > 1000 | CS(=O)(=O)c1sc(-c2ccccc2)c2c1[C@H](O)C(F)(F)C2 [Example 25a, (4S)-5,5-difluoro-3-methanesulfonyl-1-phenyl-4H,6H-cyclopenta[c]thiophen-4-ol]
19 | 50 to 1000 | > 1000 | – | CS(=O)(=O)c1sc(-c2cnc(Cl)c(F)c2)c2c1[C@H](O)C(F)(F)CC2 [Example 61a, (4S)-1-(6-chloro-5-fluoropyridin-3-yl)-5,5-difluoro-3-methanesulfonyl-4,5,6,7-tetrahydro-2-benzothiophen-4-ol]
20 | > 1000 | – | > 1000 | CS(=O)(=O)c1sc(-c2ccccc2F)c2c1[C@H](O)C(F)(F)C2 [Example 27a, (4S)-5,5-difluoro-1-(2-fluorophenyl)-3-methanesulfonyl-4H,6H-cyclopenta[c]thiophen-4-ol]
21 | > 1000 | – | – | Cc1cc(-c2sc(S(C)(=O)=O)c3c2CC(F)(F)[C@H]3O)n(C)n1 [Example 49a, (4S)-1-(1,3-dimethyl-1H-pyrazol-5-yl)-5,5-difluoro-3-methanesulfonyl-4H,5H,6H-cyclopenta[c]thiophen-4-ol]
22 | > 1000 | > 1000 | – | Cn1nc(-c2sc(S(C)(=O)=O)c3c2CCC(F)(F)[C@H]3O)cc1C#N [Example 54a, 3-[(4S)-5,5-difluoro-4-hydroxy-3-methanesulfonyl-4,5,6,7-tetrahydro-2-benzothiophen-1-yl]-1-methyl-1H-pyrazole-5-carbonitrile]
23 | > 1000 | > 1000 | – | CS(=O)(=O)c1sc(-c2ccccc2)c2c1[C@H](O)CCC2 [Example 36a, (4R)-3-methanesulfonyl-1-phenyl-4,5,6,7-tetrahydro-2-benzothiophen-4-ol]
